The values that follow come from patent US20230391786A1, “cGAS INHIBITORS” (Eli Lilly and Company, priority 2022, published 2023).

The structures appear in SMILES notation. Counter-ions that a name gives are not always drawn. Bounds are passed on as bounds.

For one assay, the target named is recombinant human cGAS (Homo sapiens (Human), UniProt Q8N884). As to the kind of experiment: In vitro inhibition assay of cGAS activity (cGAMP production, RapidFire mass spectrometry). Format: biochemical. The note with it: 10 nM recombinant human cGAS, 60 nM 75-bp dsDNA, ATP, GTP, room temperature 3 hours, read-out: IC50 (μM), In vitro inhibition assay for Compounds 95-348. The method in brief: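 Product cGAMP was quantified by RapidFire MS against a difluoro-cGAMP internal standard after a formic acid quench. The reaction contained 10 nM recombinant full-length human cGAS, 75-bp dsDNA (60 nM), ATP and GTP (50 μM) and ran for 3 h at room temperature. IC50 values came from 4-parameter nonlinear regression.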

For assay [1], the system named is cGAS activity in THP1 cells (IFNb as marker). Kind of assay: Cellular assay to measure cGAS activity (IFNb production in PMA-differentiated THP1 cells stimulated by RDG-Adenovirus-GFP). Type of assay: cell-based, human. The note with it: Homo sapiens, THP-1, THP1 cells, PMA differentiated, RDG-Adenovirus-GFP 1000 MOI, IFNb AlphaLISA, overnight incubation; read-out: IC50 (μM), Cellular assay for Compounds 95-348. Summed up: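 The readout is secreted IFNb measured by AlphaLISA after overnight compound exposure. THP1 cells, differentiated with PMA for 24 h and rested overnight, were infected with RDG-Adenovirus-GFP (1000 MOI, 4 h) before compounds were added; IC50 came from a 4-parameter logistic fit of inhibition against log concentration.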

recombinant human cGAS, sequence (Q8N884 whole entry): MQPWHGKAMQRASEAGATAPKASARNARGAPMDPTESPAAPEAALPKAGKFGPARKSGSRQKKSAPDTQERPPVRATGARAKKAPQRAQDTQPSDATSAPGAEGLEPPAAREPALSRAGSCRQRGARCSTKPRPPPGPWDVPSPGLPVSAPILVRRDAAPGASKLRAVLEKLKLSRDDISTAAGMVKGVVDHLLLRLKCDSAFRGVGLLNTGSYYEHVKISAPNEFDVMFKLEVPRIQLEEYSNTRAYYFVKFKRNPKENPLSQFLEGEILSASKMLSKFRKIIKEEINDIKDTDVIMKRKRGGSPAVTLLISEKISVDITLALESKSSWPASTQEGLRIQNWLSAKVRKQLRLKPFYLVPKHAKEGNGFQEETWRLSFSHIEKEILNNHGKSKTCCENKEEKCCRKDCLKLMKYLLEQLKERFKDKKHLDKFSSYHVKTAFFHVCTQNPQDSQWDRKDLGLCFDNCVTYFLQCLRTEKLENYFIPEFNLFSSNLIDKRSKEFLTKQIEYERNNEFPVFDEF

Take `O=C(NC1CCc2c(-c3cn[nH]c3)c3ccc(Cl)c(Cl)c3n2C1)C1(O)CCOCC1` (stereo not drawn) [Example 190, N-[3,4-Dichloro-10-(1H-pyrazol-4-yl)-6,7,8,9-tetrahydropyrido[1,2-a]indol-7-yl]-4-hydroxy-tetrahydropyran-4-carboxamide]: the IC50 was determined as 0.0361 µM at recombinant human cGAS and 2.19 µM in assay [1].
Turning to `Clc1ccc2c(-c3cn[nH]c3)c3n(c2c1Cl)CC(Nc1ncccn1)CC3` (stereo not drawn) [Example 191, 3,4-Dichloro-10-(1H-pyrazol-4-yl)-N-pyrimidin-2-yl-6,7,8,9-tetrahydropyrido[1,2-a]indol-7-amine], the results for the IC50 (at recombinant human cGAS; in assay [1]) were 0.0763 µM and 8.53 µM, respectively.
In the same order, the values of `OCC(CO)CNc1cc(Cl)c(Cl)c2[nH]cc(-c3cn[nH]c3)c12` [Example 192, 2-[[[6,7-Dichloro-3-(1H-pyrazol-4-yl)-1H-indol-4-yl]amino]methyl]propane-1,3-diol] are 0.0379 µM and 1.29 µM.
As to `OCCCOc1cc(Cl)c(Cl)c2[nH]cc(-c3cn[nH]c3)c12` [Example 193, 3-[[6,7-Dichloro-3-(1H-pyrazol-4-yl)-1H-indol-4-yl]oxy]propan-1-ol], the figures for the IC50 (at recombinant human cGAS; in assay [1]) were 0.00322 µM and 0.143 µM, respectively.
`OCC(CO)COc1cc(Cl)c(Cl)c2[nH]cc(-c3cn[nH]c3)c12` [Example 194, 2-[[6,7-Dichloro-3-(1H-pyrazol-4-yl)-1H-indol-4-yl]oxymethyl]propane-1,3-diol]: the concentration for half-maximal inhibition (IC50) at recombinant human cGAS was 0.0184 µM; in assay [1], 1.29 µM.
Regarding `CC(=O)NCCn1cc(-c2cn[nH]c2)c2c(NCCCO)cc(Cl)c(Cl)c21` [Example 195, N-[2-[6,7-Dichloro-4-(3-hydroxypropylamino)-3-(1H-pyrazol-4-yl)indol-1-yl]ethyl]acetamide], the IC50 came to 0.0298 µM at recombinant human cGAS and 1.23 µM in assay [1].
Consider `NCCCCCC(=O)NCC(=O)NC1CCc2c(-c3cn[nH]c3)c3ccc(Cl)c(Cl)c3n2C1` (stereo not drawn) [Example 196, 6-Amino-N-[2-[[3,4-dichloro-10-(1H-pyrazol-4-yl)-6,7,8,9-tetrahydropyrido[1,2-a]indol-7-yl]amino]-2-oxo-ethyl]hexanamide formic acid salt], for which the 50% inhibitory concentration (IC50) at recombinant human cGAS is 0.064 µM; in assay [1], above 10 µM.
For `N#CCOc1cc(Cl)c(Cl)c2c1c(-c1cn[nH]c1)cn2-c1cn(CCO)nn1` [Example 197, 22-[6,7-Dichloro-1-[1-(2-hydroxyethyl)triazol-4-yl]-3-(1H-pyrazol-4-yl)indol-4-yl]oxyacetonitrile], in that order: 0.00893 µM and 1.06 µM.
For `OCCCNc1cc(Cl)c(Cl)c2c1c(-c1cn[nH]c1)cn2-c1cn(CCO)nn1` [Example 198, 3-[[6,7-Dichloro-1-[1-(2-hydroxyethyl)triazol-4-yl]-3-(1H-pyrazol-4-yl)indol-4-yl]amino]propan-1-ol], in that order: 0.011 µM and 0.395 µM.
On to `CC(=O)Nc1cc(Cl)c(Cl)c2c1c(-c1cn[nH]c1)cn2-c1cn(CCO)nn1` [Example 199, N-[6,7-Dichloro-1-[1-(2-hydroxyethyl)triazol-4-yl]-3-(1H-pyrazol-4-yl)indol-4-yl]acetamide], for which the half-inhibitory concentration (IC50) on recombinant human cGAS was 0.0519 µM; in assay [1] it was 2.66 µM.
`OCCCNc1cc(Cl)cc2c1c(-c1cn[nH]c1)cn2-c1cn(CCO)nn1` [Example 200, 3-[[6-Chloro-1-[1-(2-hydroxyethyl)triazol-4-yl]-3-(1H-pyrazol-4-yl)indol-4-yl]amino]propan-1-ol]: the IC50 was 0.0282 µM at recombinant human cGAS and 0.292 µM in assay [1].
Consider `CC(=O)Nc1cc(Cl)cc2c1c(-c1cn[nH]c1)cn2-c1cn(CCO)nn1` [Example 201, N-[6-Chloro-1-[1-(2-hydroxyethyl)triazol-4-yl]-3-(1H-pyrazol-4-yl)indol-4-yl]acetamide], for which the IC50 is 0.0777 µM on recombinant human cGAS and 4.23 µM in assay [1].
Consider `CC(=O)NC1CCCn2c1c(-c1cn[nH]c1)c1c(OCC#N)cc(Cl)c(Cl)c12` (stereo not drawn) [Example 202, N-[3,4-Dichloro-1-(cyanomethoxy)-10-(1H-pyrazol-4-yl)-6,7,8,9-tetrahydropyrido[1,2-a]indol-9-yl]acetamide], for which the IC50 is 0.0191 µM on recombinant human cGAS and 2.68 µM in assay [1].
As to `Cc1nnc(N2CCn3c(c(-c4cn[nH]c4)c4c(OCC#N)cc(Cl)c(Cl)c43)C2)s1` [Example 203, 2-((6,7-Dichloro-2-(5-methyl-1,3,4-thiadiazol-2-yl)-10-(1H-pyrazol-4-yl)-1,2,3,4-tetrahydropyrazino[1,2-a]indol-9-yl)oxy)acetonitrile], the half-inhibitory concentration (IC50) came to 0.00677 µM on recombinant human cGAS and 0.374 µM in assay [1].
In the same order, the values of `N#CCOc1cc(Cl)c(Cl)c2c1c(-c1cn[nH]c1)c1n2CCN(c2ncccn2)C1` [Example 204, 2-[[6,7-Dichloro-10-(1H-pyrazol-4-yl)-2-pyrimidin-2-yl-3,4-dihydro-1H-pyrazino[1,2-a]indol-9-yl]oxy]acetonitrile] are 0.0201 µM and 0.854 µM.
For `CC(CO)CNc1cc(Cl)c(Cl)c2[nH]cc(-c3cn[nH]c3)c12` (stereo not drawn) [Example 205, 3-[[6,7-Dichloro-3-(1H-pyrazol-4-yl)-1H-indol-4-yl]amino]-2-methyl-propan-1-ol], the IC50 at recombinant human cGAS turned out to be 0.0287 µM; in assay [1] it was 1.32 µM.
Regarding `Clc1cc(OC2COC2)c2c(-c3cn[nH]c3)c[nH]c2c1Cl` [Example 206, 6,7-Dichloro-4-(oxetan-3-yloxy)-3-(1H-pyrazol-4-yl)-1H-indole], the 50% inhibitory concentration (IC50) turned out to be 0.0421 µM at recombinant human cGAS and 1.28 µM in assay [1].
As for `O[C@H]1C[C@@H](Oc2cc(Cl)c(Cl)c3[nH]cc(-c4cn[nH]c4)c23)C1` [Example 207, Cis-3-[[6,7-Dichloro-3-(1H-pyrazol-4-yl)-1H-indol-4-yl]oxy]cyclobutanol], the IC50 at recombinant human cGAS amounted to 0.042 µM; in assay [1], 1.63 µM.
For `F[C@H]1C[C@@H](Nc2cc(Cl)c(Cl)c3[nH]cc(-c4cn[nH]c4)c23)C1` [Example 208, Cis-6,7-Dichloro-N-(3-fluorocyclobutyl)-3-(1H-pyrazol-4-yl)-1H-indol-4-amine], in that order: 0.0416 µM and 2.54 µM.
On to `OCCc1cc(-n2cc(-c3cn[nH]c3)c3ccc(Cl)c(Cl)c32)on1` [Example 211, 2-[5-[6,7-Dichloro-3-(1H-pyrazol-4-yl)indol-1-yl]isoxazol-3-yl]ethanol], for which the values for the concentration for half-maximal inhibition (IC50) (on recombinant human cGAS; in assay [1]) were 0.0342 µM and 2.28 µM, respectively.
As for `O=C(O)Cn1cc(-n2cc(-c3cn[nH]c3)c3ccc(Cl)c(Cl)c32)nn1` [Example 212, 2-[4-[6,7-Dichloro-3-(1H-pyrazol-4-yl)indol-1-yl]triazol-1-yl]acetic acid], the half-inhibitory concentration (IC50) is 0.0125 µM at recombinant human cGAS and above 10 µM in assay [1].
Consider `NC(=O)Cn1cc(-n2cc(-c3cn[nH]c3)c3ccc(Cl)c(Cl)c32)nn1` [Example 213, 2-[4-[6,7-Dichloro-3-(1H-pyrazol-4-yl)indol-1-yl]triazol-1-yl]acetamide], for which the IC50 was determined as 0.0538 µM at recombinant human cGAS and 4.1 µM in assay [1].
Take `NCCn1cc(-n2cc(-c3cn[nH]c3)c3ccc(Cl)c(Cl)c32)nn1` [Example 214, 2-[4-[6,7-Dichloro-3-(1H-pyrazol-4-yl)indol-1-yl]triazol-1-yl]ethanamine hydrochloride]: the values for the half-maximal inhibitory concentration (IC50) (on recombinant human cGAS; in assay [1]) were 0.0686 µM and 0.885 µM, respectively.
With `CNNc1cc(Cl)c(Cl)c2[nH]cc(-c3cn[nH]c3)c12` [Example 215, 1-[6,7-Dichloro-3-(1H-pyrazol-4-yl)-1H-indol-4-yl]-2-methyl-hydrazine hydrochloride], the half-maximal inhibitory concentration (IC50) was found to be 0.0864 µM on recombinant human cGAS and 2.59 µM in assay [1].
With `NCC(=O)NCc1[nH]c2c(Cl)c(Cl)ccc2c1-c1cn[nH]c1` [Example 216, 2-Amino-N-[[6,7-dichloro-3-(1H-pyrazol-4-yl)-1H-indol-2-yl]methyl]acetamide formic acid salt], the IC50 at recombinant human cGAS was found to be 0.0598 µM; in assay [1], 4.17 µM.
In the same order, the values of `CNCC(=O)NCc1[nH]c2c(Cl)c(Cl)ccc2c1-c1cn[nH]c1` [Example 217, N-[[6,7-Dichloro-3-(1H-pyrazol-4-yl)-1H-indol-2-yl]methyl]-2-(methylamino)acetamide formic acid salt] are 0.0794 µM and 2.12 µM.
As for `OCCn1cc(-n2cc(-c3cn[nH]c3)c3ccc(Cl)c(F)c32)nn1` [Example 218, 2-[4-[6-Chloro-7-fluoro-3-(1H-pyrazol-4-yl)indol-1-yl]triazol-1-yl]ethanol], the results for the IC50 (on recombinant human cGAS; in assay [1]) were 0.0679 µM and 3.27 µM, respectively.
For the compound `O=C(Nc1cc(Cl)cc2[nH]cc(-c3cn[nH]c3)c12)C(F)F` [Example 219, N-(6-Chloro-3-(1H-pyrazol-4-yl)-1H-indol-4-yl)-2,2-difluoroacetamide], the half-maximal inhibitory concentration (IC50) was 0.0348 µM at recombinant human cGAS and 0.35 µM in assay [1].
Take `O=C(CO)NCc1[nH]c2c(Cl)c(Cl)cc(NC(=O)CO)c2c1-c1cn[nH]c1` [Example 221, N-[[6,7-Dichloro-4-[(2-hydroxyacetyl)amino]-3-(1H-pyrazol-4-yl)-1H-indol-2-yl]methyl]-2-hydroxy-acetamide]: the IC50 at recombinant human cGAS is 0.0238 µM; in assay [1], above 10 µM.
For `CC(=O)Nc1cc(Cl)c(Cl)c2[nH]c(CNC(=O)CO)c(-c3cn[nH]c3)c12` [Example 222, N-[[4-Acetamido-6,7-dichloro-3-(1H-pyrazol-4-yl)-1H-indol-2-yl]methyl]-2-hydroxy-acetamide], in that order: 0.0927 µM and above 10 µM.

The term IC50 denotes the concentration that gives 50% inhibition.
